# Read-outs that look alike come from different tables or passages of the source.
# Experiments:
# [1] = system: NCI-60 human tumor cell line panel; assay: NCI-60 human tumor cell line screen (GI50); format: cell-based
# IRE1(h) = IRE1(h) (Homo sapiens (Human), UniProt O75460); assay: KinaseProfiler panel; format: biochemical; set-up: dose or concentration left out as unconfirmed; conditions: activity remaining
# CSK(h) = CSK(h) (Homo sapiens (Human), UniProt P41240); assay: KinaseProfiler panel; format: biochemical; set-up: dose or concentration left out as unconfirmed; conditions: activity remaining
# Chain of CSK(h) (P41240 whole entry): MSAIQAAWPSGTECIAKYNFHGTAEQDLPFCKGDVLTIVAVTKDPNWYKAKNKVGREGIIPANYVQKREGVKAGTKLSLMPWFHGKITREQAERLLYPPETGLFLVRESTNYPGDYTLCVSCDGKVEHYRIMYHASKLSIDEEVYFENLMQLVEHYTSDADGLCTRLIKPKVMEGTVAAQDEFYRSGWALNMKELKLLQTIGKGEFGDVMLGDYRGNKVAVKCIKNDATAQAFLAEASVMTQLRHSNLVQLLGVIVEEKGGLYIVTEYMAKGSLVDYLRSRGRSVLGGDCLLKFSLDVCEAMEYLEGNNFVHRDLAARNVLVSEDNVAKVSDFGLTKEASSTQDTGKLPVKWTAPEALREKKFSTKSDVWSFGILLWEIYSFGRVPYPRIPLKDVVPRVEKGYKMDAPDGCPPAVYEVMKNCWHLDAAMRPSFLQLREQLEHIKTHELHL
# SAPK2b(h) = SAPK2b(h) (Homo sapiens (Human), UniProt Q15759); assay: KinaseProfiler panel; format: biochemical; set-up: dose or concentration left out as unconfirmed; conditions: activity remaining
# ZAP-70(h) = ZAP-70(h) (Homo sapiens (Human), UniProt P43403); assay: KinaseProfiler panel; format: biochemical; set-up: dose or concentration left out as unconfirmed; conditions: activity remaining
# Chain of ZAP-70(h) (P43403 whole entry): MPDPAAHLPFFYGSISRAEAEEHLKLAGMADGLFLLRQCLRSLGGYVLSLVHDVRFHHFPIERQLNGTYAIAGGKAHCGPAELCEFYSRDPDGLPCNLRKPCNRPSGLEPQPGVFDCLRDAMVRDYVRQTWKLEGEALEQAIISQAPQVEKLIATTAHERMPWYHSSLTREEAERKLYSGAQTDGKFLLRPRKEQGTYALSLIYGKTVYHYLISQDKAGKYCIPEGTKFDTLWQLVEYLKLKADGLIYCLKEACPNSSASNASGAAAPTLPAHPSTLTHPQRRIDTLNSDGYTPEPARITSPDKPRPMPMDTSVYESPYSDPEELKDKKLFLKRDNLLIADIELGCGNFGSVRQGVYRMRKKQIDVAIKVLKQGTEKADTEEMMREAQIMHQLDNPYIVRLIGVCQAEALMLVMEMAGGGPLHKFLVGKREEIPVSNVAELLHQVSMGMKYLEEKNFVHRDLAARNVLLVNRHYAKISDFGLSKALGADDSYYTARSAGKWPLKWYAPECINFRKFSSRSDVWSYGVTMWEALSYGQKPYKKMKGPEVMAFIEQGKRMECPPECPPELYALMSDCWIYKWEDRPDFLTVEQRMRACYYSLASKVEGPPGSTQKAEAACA
# FGFR4(h) = FGFR4(h) (Homo sapiens (Human), UniProt P22455); assay: KinaseProfiler panel; format: biochemical; set-up: dose or concentration left out as unconfirmed; conditions: activity remaining
# Chain of FGFR4(h) (P22455 22-802): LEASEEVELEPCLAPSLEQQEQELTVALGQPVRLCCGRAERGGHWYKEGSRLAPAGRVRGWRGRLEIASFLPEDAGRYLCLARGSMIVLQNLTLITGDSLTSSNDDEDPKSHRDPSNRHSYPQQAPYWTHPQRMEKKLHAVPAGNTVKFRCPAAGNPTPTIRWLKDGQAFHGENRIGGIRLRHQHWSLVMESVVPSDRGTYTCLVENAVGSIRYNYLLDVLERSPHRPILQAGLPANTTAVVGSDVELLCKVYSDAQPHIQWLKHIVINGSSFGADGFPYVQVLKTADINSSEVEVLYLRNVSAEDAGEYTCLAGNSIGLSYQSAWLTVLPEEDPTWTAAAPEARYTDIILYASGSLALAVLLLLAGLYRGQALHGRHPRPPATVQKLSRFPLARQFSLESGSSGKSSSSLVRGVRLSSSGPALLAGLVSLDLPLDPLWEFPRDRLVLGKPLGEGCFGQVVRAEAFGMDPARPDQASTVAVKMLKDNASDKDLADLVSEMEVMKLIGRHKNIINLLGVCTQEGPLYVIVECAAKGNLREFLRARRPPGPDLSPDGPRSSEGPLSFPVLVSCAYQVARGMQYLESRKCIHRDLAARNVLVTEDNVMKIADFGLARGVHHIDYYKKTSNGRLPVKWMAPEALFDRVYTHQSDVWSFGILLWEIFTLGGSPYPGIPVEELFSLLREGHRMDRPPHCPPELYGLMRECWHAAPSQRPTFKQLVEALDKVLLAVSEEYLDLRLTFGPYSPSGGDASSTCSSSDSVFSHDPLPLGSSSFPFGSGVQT
# CDK2/cyclinE(h) = CDK2/cyclinE(h) (Homo sapiens (Human), UniProt P24941); assay: KinaseProfiler panel; format: biochemical; set-up: dose or concentration left out as unconfirmed; conditions: activity remaining
# RIPK2(h) = RIPK2(h) (Homo sapiens (Human), UniProt O43353); assay: KinaseProfiler panel; format: biochemical; set-up: dose or concentration left out as unconfirmed; conditions: activity remaining
# Chain of RIPK2(h) (O43353 whole entry): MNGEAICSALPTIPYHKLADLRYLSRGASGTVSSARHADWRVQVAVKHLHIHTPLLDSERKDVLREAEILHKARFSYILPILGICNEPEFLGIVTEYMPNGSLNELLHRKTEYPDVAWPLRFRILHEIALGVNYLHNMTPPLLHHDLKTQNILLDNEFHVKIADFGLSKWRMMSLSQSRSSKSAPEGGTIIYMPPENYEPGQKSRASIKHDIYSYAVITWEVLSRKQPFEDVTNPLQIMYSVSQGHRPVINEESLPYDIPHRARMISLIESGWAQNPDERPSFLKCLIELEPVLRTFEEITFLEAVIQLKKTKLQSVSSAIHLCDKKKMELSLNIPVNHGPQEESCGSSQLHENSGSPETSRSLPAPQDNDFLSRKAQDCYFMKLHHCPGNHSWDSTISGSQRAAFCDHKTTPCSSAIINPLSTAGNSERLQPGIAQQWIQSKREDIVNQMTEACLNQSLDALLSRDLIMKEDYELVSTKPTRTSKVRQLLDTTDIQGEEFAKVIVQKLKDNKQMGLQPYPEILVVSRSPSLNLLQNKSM
# TAO3(h) = TAO3(h) (Homo sapiens (Human), UniProt Q9H2K8); assay: KinaseProfiler panel; format: biochemical; set-up: dose or concentration left out as unconfirmed; conditions: activity remaining
# Chain of TAO3(h) (Q9H2K8 whole entry): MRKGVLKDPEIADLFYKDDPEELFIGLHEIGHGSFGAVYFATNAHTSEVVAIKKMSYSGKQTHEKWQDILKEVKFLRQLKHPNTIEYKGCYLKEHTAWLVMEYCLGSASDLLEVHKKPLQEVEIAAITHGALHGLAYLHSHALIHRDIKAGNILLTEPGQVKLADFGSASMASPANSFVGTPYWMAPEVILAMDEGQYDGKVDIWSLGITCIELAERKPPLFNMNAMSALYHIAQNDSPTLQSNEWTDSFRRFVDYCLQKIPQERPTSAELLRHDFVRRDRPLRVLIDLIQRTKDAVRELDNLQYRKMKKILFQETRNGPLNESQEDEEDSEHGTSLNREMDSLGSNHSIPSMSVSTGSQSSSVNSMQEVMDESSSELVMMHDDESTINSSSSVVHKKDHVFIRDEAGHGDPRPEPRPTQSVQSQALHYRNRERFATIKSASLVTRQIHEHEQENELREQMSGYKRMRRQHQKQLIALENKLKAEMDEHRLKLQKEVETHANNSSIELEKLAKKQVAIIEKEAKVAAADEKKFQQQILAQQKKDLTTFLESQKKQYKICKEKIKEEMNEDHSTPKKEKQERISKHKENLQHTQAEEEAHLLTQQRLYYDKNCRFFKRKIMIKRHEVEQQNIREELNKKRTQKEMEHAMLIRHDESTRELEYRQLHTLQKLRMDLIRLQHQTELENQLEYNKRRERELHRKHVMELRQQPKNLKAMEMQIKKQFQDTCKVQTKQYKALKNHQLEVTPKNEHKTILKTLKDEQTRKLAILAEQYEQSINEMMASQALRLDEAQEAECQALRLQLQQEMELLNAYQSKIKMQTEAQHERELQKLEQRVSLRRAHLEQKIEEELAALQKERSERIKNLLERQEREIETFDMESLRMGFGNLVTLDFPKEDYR
# TGFBR1(h) = TGFBR1(h) (Homo sapiens (Human), UniProt P36897); assay: KinaseProfiler panel; format: biochemical; set-up: dose or concentration left out as unconfirmed; conditions: activity remaining
# Chain of TGFBR1(h) (P36897 34-503): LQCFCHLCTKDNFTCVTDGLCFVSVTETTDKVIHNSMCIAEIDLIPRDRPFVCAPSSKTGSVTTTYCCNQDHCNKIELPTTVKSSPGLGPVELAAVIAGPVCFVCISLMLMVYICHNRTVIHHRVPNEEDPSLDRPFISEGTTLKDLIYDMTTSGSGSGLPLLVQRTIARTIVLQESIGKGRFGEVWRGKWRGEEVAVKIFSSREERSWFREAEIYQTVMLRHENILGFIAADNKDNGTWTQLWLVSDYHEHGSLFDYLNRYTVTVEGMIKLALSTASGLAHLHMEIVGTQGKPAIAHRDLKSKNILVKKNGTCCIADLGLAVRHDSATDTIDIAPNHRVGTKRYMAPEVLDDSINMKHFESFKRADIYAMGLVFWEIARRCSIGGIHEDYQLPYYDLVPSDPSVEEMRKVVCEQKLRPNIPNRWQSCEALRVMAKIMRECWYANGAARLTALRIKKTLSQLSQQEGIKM
# CDK2/cyclinA(h) = CDK2/cyclinA(h) (Homo sapiens (Human), UniProt P24941); assay: KinaseProfiler panel; format: biochemical; set-up: dose or concentration left out as unconfirmed; conditions: activity remaining
# Chain of IRE1(h) (O75460 19-977): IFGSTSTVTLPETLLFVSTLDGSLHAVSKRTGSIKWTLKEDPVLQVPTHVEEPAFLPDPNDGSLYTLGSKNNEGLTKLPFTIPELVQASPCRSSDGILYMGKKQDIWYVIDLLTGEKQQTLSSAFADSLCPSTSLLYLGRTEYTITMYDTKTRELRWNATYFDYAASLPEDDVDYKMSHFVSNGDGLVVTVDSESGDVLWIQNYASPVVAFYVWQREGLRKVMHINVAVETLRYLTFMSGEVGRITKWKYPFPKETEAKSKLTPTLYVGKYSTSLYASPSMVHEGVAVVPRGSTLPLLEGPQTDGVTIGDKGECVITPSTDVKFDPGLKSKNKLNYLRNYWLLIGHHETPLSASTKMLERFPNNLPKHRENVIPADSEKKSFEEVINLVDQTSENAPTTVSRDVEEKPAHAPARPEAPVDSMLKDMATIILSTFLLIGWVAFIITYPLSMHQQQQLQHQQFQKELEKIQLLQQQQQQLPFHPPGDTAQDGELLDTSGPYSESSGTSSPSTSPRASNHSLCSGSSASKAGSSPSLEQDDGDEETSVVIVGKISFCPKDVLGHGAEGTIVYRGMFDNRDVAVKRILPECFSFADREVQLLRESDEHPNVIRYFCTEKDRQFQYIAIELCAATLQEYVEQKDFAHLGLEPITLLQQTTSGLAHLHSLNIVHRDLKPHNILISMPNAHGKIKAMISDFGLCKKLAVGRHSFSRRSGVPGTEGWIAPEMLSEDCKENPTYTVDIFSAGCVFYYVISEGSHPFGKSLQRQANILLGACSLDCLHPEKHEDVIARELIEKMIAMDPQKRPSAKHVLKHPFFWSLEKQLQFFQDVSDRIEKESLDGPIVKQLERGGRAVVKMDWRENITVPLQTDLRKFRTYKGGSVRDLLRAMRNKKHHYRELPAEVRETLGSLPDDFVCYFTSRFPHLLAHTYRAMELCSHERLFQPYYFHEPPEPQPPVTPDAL
smiles,measurement,setting,value
"Cc1cc2c(-c3ccc(NC(=O)[C@H](N)CC(C)(C)C)cc3C)ccnc2[nH]1 [Compound F-90, (2R)-2-Amino-4,4-dimethyl-N-[3-methyl-4-(2-methyl-1H-pyrrolo[2,3-b]pyridin-4-yl)phenyl]pentanamide]",GI50,"[1]; Homo sapiens, SK-MEL-5, SK-MEL-5, Melanoma, read-out: GI50",2.5 µM
same,GI50,"[1]; Homo sapiens, SK-MEL-28, SK-MEL-28, Melanoma, read-out: GI50",8.5 µM
same,GI50,"[1]; Homo sapiens, SK-OV-3, SK-OV-3, Ovarian Cancer, read-out: GI50",12.4 µM
same,GI50,"[1]; Homo sapiens, SN12C, Renal Cancer, read-out: GI50",11.1 µM
same,GI50,"[1]; Homo sapiens, SNB-19, SNB-19, CNS Cancer, read-out: GI50",11.3 µM
same,GI50,"[1]; Homo sapiens, SNB-75, SNB-75, CNS Cancer, read-out: GI50",4.7 µM
same,GI50,"[1]; Homo sapiens, SR, Leukemia, read-out: GI50",2.1 µM
same,GI50,"[1]; Homo sapiens, SW-620, SW-620, Colon Cancer, read-out: GI50",5.6 µM
same,GI50,"[1]; Homo sapiens, T47D, T-47D, Breast Cancer, read-out: GI50",6.7 µM
same,GI50,"[1]; Homo sapiens, TK-10, TK-10, Renal Cancer, read-out: GI50",12.6 µM
same,GI50,"[1]; Homo sapiens, U-251, U251, CNS Cancer, read-out: GI50",6 µM
same,GI50,"[1]; Homo sapiens, UACC-62, UACC-62, Melanoma, read-out: GI50",8.6 µM
same,GI50,"[1]; Homo sapiens, UACC-257, UACC-257, Melanoma, read-out: GI50",10.5 µM
same,GI50,"[1]; Homo sapiens, UO-31, UO-31, Renal Cancer, read-out: GI50",4.6 µM
same,GI50,"[1]; IGROV1, Ovarian Cancer",−4.915 Log(M)
same,GI50,"[1]; K-562, Leukemia",−5.551 Log(M)
same,GI50,"[1]; KM12, Colon Cancer",−5.215 Log(M)
same,GI50,"[1]; LOX IMVI, Melanoma",−5.211 Log(M)
same,GI50,"[1]; M14, Melanoma",−4.959 Log(M)
same,GI50,"[1]; MALME-3M, Melanoma",−4.992 Log(M)
same,GI50,"[1]; MCF7, Breast Cancer",−5.256 Log(M)
same,GI50,"[1]; MDA-MB-231/ATCC, Breast Cancer",−5.129 Log(M)
same,GI50,"[1]; MDA-MB-435, Breast Cancer",−5.155 Log(M)
same,GI50,"[1]; MDA-MB-468, Breast Cancer",−5.564 Log(M)
same,GI50,"[1]; MOLT-4, Leukemia",−5.329 Log(M)
same,GI50,"[1]; NCI-H23, Non-Small Cell Lung Cancer",−4.915 Log(M)
same,GI50,"[1]; NCI-H226, Non-Small Cell Lung Cancer",−4.971 Log(M)
same,GI50,"[1]; NCI-H322M, Non-Small Cell Lung Cancer",−4.845 Log(M)
same,GI50,"[1]; NCI-H460, Non-Small Cell Lung Cancer",−5.245 Log(M)
same,GI50,"[1]; NCI-H522, Non-Small Cell Lung Cancer",−4.887 Log(M)
same,GI50,"[1]; NCI/ADR-RES, Breast Cancer",−4.873 Log(M)
same,GI50,"[1]; OVCAR-3, Ovarian Cancer",−4.937 Log(M)
same,GI50,"[1]; OVCAR-4, Ovarian Cancer",−5.158 Log(M)
same,GI50,"[1]; OVCAR-5, Ovarian Cancer",−4.982 Log(M)
same,GI50,"[1]; OVCAR-8, Ovarian Cancer",−4.867 Log(M)
same,GI50,"[1]; PC-3, Prostate Cancer",−5.102 Log(M)
same,GI50,"[1]; RPMI-8226, Leukemia",−5.557 Log(M)
same,GI50,"[1]; RXF 393, Renal Cancer",−5.434 Log(M)
same,GI50,"[1]; SF-268, CNS Cancer",−4.953 Log(M)
same,GI50,"[1]; SF-295, CNS Cancer",−5.079 Log(M)
same,GI50,"[1]; SF-539, CNS Cancer",−5.098 Log(M)
same,GI50,"[1]; SK-MEL-2, Melanoma",−4.853 Log(M)
same,GI50,"[1]; SK-MEL-5, Melanoma",−5.609 Log(M)
same,GI50,"[1]; SK-MEL-28, Melanoma",−5.072 Log(M)
same,GI50,"[1]; SK-OV-3, Ovarian Cancer",−4.905 Log(M)
same,GI50,"[1]; SN12C, Renal Cancer",−4.953 Log(M)
same,GI50,"[1]; SNB-19, CNS Cancer",−4.945 Log(M)
same,GI50,"[1]; SNB-75, CNS Cancer",−5.326 Log(M)
same,GI50,"[1]; SR, Leukemia",−5.682 Log(M)
same,GI50,"[1]; SW-620, Colon Cancer",−5.250 Log(M)
same,GI50,"[1]; T-47D, Breast Cancer",−5.174 Log(M)
same,GI50,"[1]; TK-10, Renal Cancer",−4.901 Log(M)
same,GI50,"[1]; U251, CNS Cancer",−5.222 Log(M)
same,GI50,"[1]; UACC-62, Melanoma",−5.066 Log(M)
same,GI50,"[1]; UACC-257, Melanoma",−4.977 Log(M)
same,GI50,"[1]; UO-31, Renal Cancer",−5.335 Log(M)
same,% Activity,IRE1(h),99%
same,% Activity,CSK(h),92%
same,% Activity,SAPK2b(h),90%
same,% Activity,ZAP-70(h),71%
same,% Activity,FGFR4(h),114%
same,% Activity,CDK2/cyclinE(h),92%
same,% Activity,RIPK2(h),97%
same,% Activity,TAO3(h),100%
same,% Activity,TGFBR1(h),103%
same,% Activity,CDK2/cyclinA(h),87%
